Results as given in US20200069592A1, “HSP90 INHIBITOR ORAL FORMULATIONS AND RELATED METHODS” (Samus Therapeutics, Inc., priority 2017, published 2020).
Read-outs that look alike come from different tables or passages of the source. Marks after values point to notes of the source that are not given here.

How the values were obtained:
[1] = in vivo; conditions: female, Nu/Nu (NU-Foxn1^nu) athymic nude, mouse, ip
Text: (§1) The animals used in this study were Nu/Nu (NU-Foxn1^nu) (athymic nude) physiologically normal female mice supplied by Charles River. At the time of inoculation, the age of the animals was 5-8 weeks. Sixty total animals were used and animals were not replaced during the course of this study. Mice were identified with a transponder. The animals were housed in individually ventilated microisolator cages and allowed to acclimate for at least 5-7 days. The animals were maintained under pathogen-free conditions and given Teklad Global Diet® 2920x irradiated pellets for food and autoclaved water ad libitum.
(§2) Compound ldihydrochloride (2HCl) was provided as a crystalline powder and stored at 2-8° C. protected from light. The administered form of Compound 1 2HCl was a clear solution. For intraperitoneal administration, Compound 1 2HCl was reconstituted in PBS. For oral administration, Compound 1 2HCl was reconstituted in 0.5% Methylcellulose (MC) in water. The salt: base ratio was 1.14:1 (i.e., to obtain 100 mg of Compound 1 free base, 114 mg of Compound 1 dihydrochloride salt was weighed out). Dose levels of Compound 1 were based on the free base, not the salt. Compound 1 2HCl in administered form was prepared fresh immediately prior to use.
(§3) Animals were randomized using random equilibration of tumor volume into one of six study groups, as shown in Table 22 (Groups 1-6), with 10 animals in each group.
(§4) Group 1 was administered vehicle control alone (without Compound 1 2HCl) intraperitoneally (IP) three times weekly (TIW) until the end of the study. PBS was used as the vehicle control and was administered at a volume of 10 mL/kg.
(§5) Groups 2-6 were administered Compound 1 2HCl at a volume of 10 mL/kg three times weekly (TIW) until the end of the study with the doses as described next.
(§6) Group 2 received 75 mg/kg Compound 1 2HCl via intraperitoneal administration.
(§7) Group 3 received 75 mg/kg Compound 1 2HCl via oral administration (PO). Group 4 received 100 mg/kg Compound 1 2HCl via oral administration. Group 5 received 125 mg/kg Compound 1 2HCl via oral administration. Group 6 received 150 mg/kg Compound 1 2HCl via oral administration. […]
(§8) Tumor volume and body weight were measured twice weekly with gross observations daily. […]
(§9) For data analysis, simple statistics (ANOVA) will be conducted on tumor volumes to verify significance of treatment groups relative to control. Growth curves will be constructed and percent tumor growth inhibition (TGI) will be calculated as a means to assess the effect of the single-agent therapy regimens. […]
(§10) The Materials and Methods used were the same as discussed above for Example 3, except for the lengths of treatment for Groups 1-4. […] Tumor growth and body weight were measured twice weekly with gross observations daily for Groups 1-5 until Day 117.

[2] = Tolerability (body weight, toxicity, maximum tolerated dose) in the Example 5 rat study; format: in vivo; conditions: female, Sprague Dawley, rat, in vivo, iv
Experimental: Ninety-four total animals were observed thereafter. The parenteral administration is performed by tail vein injection.

[3] = Solubility / compatibility testing in drinking solution vehicles and ingredients (Example 7); format: physicochemical
Text: This Example examined drinking solution vehicles for Compound 1 2HCl. Initially Orasweet® Sugar Free options were explored as a vehicle for Compound 1 2HCl.
ORA-Sweet®, commerically available from Perrigo, comprises purified water, sucrose, glycerine, sorbitol, and flavouring. ORA-Sweet® is buffered with citric acid and sodium phosphate and preserved with methylparaben and potassium sorbate.
ORA-Sweet® Sugar Free, commerically available from Perrigo, comprises purified water, glycerine, sorbitol, sodium saccharin, xanthan gum, and flavouring. It is buffered with citric acid and sodium citrate and preserved with methylparaben (0.03%), potassium sorbate (0.1%), and propylparaben (0.008%).
SyrSpend® SF Cherry, commercially available from Fargon, comprises purified water, modified food starch, sodium citrate, citric acid, sucralose, sodium benzoate (<0.1% preservative), sorbic acid, malic acid and simethicone.
SyrSpend® SF Alka, commercially available from Fargon, comprises modified starch, calcium carbonate and sucralose.
ORA-Blend®, commerically available from Perrigo, comprises purified water, sucrose, glycerin, sorbitol, flavoring, microcrystalline cellulose, carboxymethylcellulose sodium, xanthan gum, carrageenan, calcium sulfate, trisodium phosphate, citric acid and sodium phosphate as buffers, dimethicone antifoam emulsion and preserved with methylparaben and potassium sorbate.
ORA-Plus®, commerically available from Perrigo, comprises purified water, microcrystalline cellulose, carboxymethylcellulose sodium, xanthan gum, carrageenan, calcium sulfate, trisodium phosphate, citric acid and sodium phosphate as buffers, dimethicone antifoam emulsion and preserved with methylparaben and potassium sorbate.

[4] = female, Nu/Nu (NU-Foxn1^nu) athymic nude, mouse, in vivo, po, 150 mg/kg, 14 days
Text: as §1, §2, §3, §4, §5, §6, §7, §8, §9, §10

[5] = Body weight change / dose tolerance in the MDA-MB-468 xenograft study
Text: as §1, §2, §3, §4, §5, §6, §7, §8, §9, §10

[6] = Plasma pharmacokinetics after single oral dose in ORA-Plus or SyrSpend SF (Example 6), LC-MS/MS; format: in vivo, Sprague Dawley rats; conditions: for % AUC0-last test vs reference: rats, ratio of group averages; for AUC(0-t) / Cmax / Tmax / AUC(0-inf) / half-life: female, Sprague Dawley, rat, plasma, po
[7] = G5: 2HCl, 24 mg/kg single oral dose, ORA-plus, rat plasma, n = 4
[8] = G6: 2HCl, 48 mg/kg single oral dose, ORA-plus, rat plasma
[9] = G12: 2HCl, 24 mg/kg single oral dose, SyrSpend, rat plasma, n = 1
[10] = G13: 2HCl, 48 mg/kg single oral dose, SyrSpend, n = 2
[11] = G14: 2HCl, 60 mg/kg single oral dose, SyrSpend, n = 3
[12] = 24 mg/kg, G5: 2HCl, 24 mg/kg single oral dose, ORA-plus, rat plasma
[13] = 24 mg/kg, G5: 2HCl, 24 mg/kg single oral dose, ORA-plus, rat plasma, n = 4
[14] = 24 mg/kg, G12: 2HCl, 24 mg/kg single oral dose, SyrSpend, rat plasma
[15] = 24 mg/kg, G12: 2HCl, 24 mg/kg single oral dose, SyrSpend, rat plasma, n = 1
[16] = 48 mg/kg, G6: 2HCl, 48 mg/kg single oral dose, ORA-plus, rat plasma
[17] = 48 mg/kg, G13: 2HCl, 48 mg/kg single oral dose, SyrSpend
[18] = 48 mg/kg, G13: 2HCl, 48 mg/kg single oral dose, SyrSpend, n = 2
[19] = 60 mg/kg, G14: 2HCl, 60 mg/kg single oral dose, SyrSpend
[20] = 60 mg/kg, G14: 2HCl, 60 mg/kg single oral dose, SyrSpend, n = 3

Compound: CC(C)NCCCn1c(Sc2cc3c(cc2I)OCO3)nc2c(N)ncnc21 [Compound 1 2HCl]
- MTD at 103 days [1]: 75 mg/kg
- MTD [2]: 24 mg/kg
- solubility ([3]; 50% Flavor Sweet SF in water, aqueous with cosolvent or surfactant or cyclodextrin, API in 50% Flavor Sweet SF/H2O, read-out: Solubility testing result: Precipitate at): < 5000 µg/mL
- solubility ([3]; 50% Versa Free in water, aqueous with cosolvent or surfactant or cyclodextrin, API in 50% Versa Free/H2O, read-out: Solubility testing result: Precipitate at): < 5000 µg/mL
- solubility ([3]; Flavor Sweet (sugar free) vehicle, aqueous with cosolvent or surfactant or cyclodextrin, API in Flavor Sweet (sugar free), read-out: Solubility testing result: Precipitate at): < 5000 µg/mL
- Compatibility with drinking solution vehicle ([3]; Orasweet Sugar Free formulations (contain xanthan gum)): incompatibility
- solubility ([3]; Versa Free vehicle, aqueous with cosolvent or surfactant or cyclodextrin, API in Versa Free, read-out: Solubility testing result: Precipitate at): < 5000 µg/mL
- solubility ([3]; glycerin in 50% water, aqueous with cosolvent or surfactant or cyclodextrin, read-out: Ingredient solubility testing): > 10000 µg/mL
- solubility ([3]; glycerin, organic solvent or mixture, read-out: Ingredient solubility testing): > 6000 µg/mL
- Treatment toxicity [4]: stopped on Day 14 due to toxicity
- Body weight change ([5]; 100 mg/kg PO, during and after treatment (to Day 117)): minimal effects on body weight
- Body weight change ([5]; Group 2: 75 mg/kg IP, Day 5 and Day 8): greater decrease in body weight
- AUC % Extrap [6, 7]: 5.00 ± 4.92 %
- Cl_F [6, 7]: 6.14 ± 2.32 L/h/kg
- Vz_F [6, 7]: 15.12 ± 3.53 L/kg
- AUC % Extrap [6, 8]: 1.42 ± 0.79%
- Cl_F [6, 8]: 6.63 ± 2.82 L/h/kg
- Vz_F [6, 8]: 33.74 ± 16.37 L/kg
- AUC % Extrap [6, 9]: 0.47^a %
- Cl_F [6, 9]: 4.17^a L/hr/kg
- Vz_F [6, 9]: 17.51^a L/kg
- AUC % Extrap [6, 10]: 6.76 ± 5.82 %
- Cl_F [6, 10]: 22.85 ± 5.76 L/h/kg
- Vz_F [6, 10]: 139.42 ± 13.22 L/kg
- AUC % Extrap [6, 11]: 0.69 ± 0.34 %
- Vz_F [6, 11]: 27.15 ± 11.86 L/kg
- % AUC0-last test vs reference ([6]; Group 5 (24 mg/kg 2HCl ORA-plus) vs Group 6 (48 mg/kg 2HCl ORA-plus)): 53.01%
- % AUC0-last test vs reference ([6]; Group 5 (24 mg/kg 2HCl ORA-plus) vs Group 12 (24 mg/kg 2HCl SyrSpend)): 84.12%
- % AUC0-last test vs reference ([6]; Group 6 (48 mg/kg 2HCl ORA-plus) vs Group 13 (48 mg/kg 2HCl SyrSpend)): 298.14%
- % AUC0-last test vs reference ([6]; Group 6 (48 mg/kg 2HCl ORA-plus) vs Group 14 (60 mg/kg 2HCl SyrSpend)): 62.79%
- % AUC0-last test vs reference ([6]; Group 12 (24 mg/kg 2HCl SyrSpend) vs Group 13 (48 mg/kg 2HCl SyrSpend)): 187.87%
- % AUC0-last test vs reference ([6]; Group 12 (24 mg/kg 2HCl SyrSpend) vs Group 14 (60 mg/kg 2HCl SyrSpend)): 39.57%
- % AUC0-last test vs reference ([6]; Group 13 (48 mg/kg 2HCl SyrSpend) vs Group 14 (60 mg/kg 2HCl SyrSpend)): 21.06%
- AUC(0-t) [6, 12]: 4200 ± 1120 ng·h/mL
- Cmax [6, 12]: 1070 ± 221 ng/mL
- Tmax [6, 12]: 2.4 ± 0.89 h
- AUC(0-inf) [6, 13]: 4250 ± 1230 ng·h/mL
- half-life [6, 13]: 1.8 ± 0.47 h
- AUC(0-t) [6, 14]: 5000 ± 1260 ng·h/mL
- Cmax [6, 14]: 1030 ± 151 ng/mL
- Tmax [6, 14]: 3.2 ± 1.1 h
- AUC(0-inf) [6, 15]: 5750 ng·h/mL
- half-life [6, 15]: 2.91 h
- AUC(0-inf) [6, 16]: 8040 ± 2410 ng·h/mL
- AUC(0-t) [6, 16]: 7930 ± 2380 ng·h/mL
- Cmax [6, 16]: 1120 ± 429 ng/mL
- Tmax [6, 16]: 2.8 ± 1.1 h
- half-life [6, 16]: 3.5 ± 0.53 h
- AUC(0-t) [6, 17]: 2660 ± 946 ng·h/mL
- Cmax [6, 17]: 1990 ± 787 ng/mL
- Tmax [6, 17]: 0.7 ± 0.27 h
- AUC(0-inf) [6, 18]: 2170 ± 548 ng·h/mL
- half-life [6, 18]: 4.42 ± 1.52 h
- AUC(0-t) [6, 19]: 12600 ± 5100 ng·h/mL
- Cmax [6, 19]: 1710 ± 314 ng/mL
- Tmax [6, 19]: 2.4 ± 2.07 h
- AUC(0-inf) [6, 20]: 11500 ± 4440 ng·h/mL
- half-life [6, 20]: 3.2 ± 0.4 h
- Time point up to which all animals had quantifiable plasma levels ([6]; single oral dose, ORA-Plus or SyrSpend, data not shown): ≥ 8 h
